Laboratory results: patent publication US8158587B2, “Compound having histone deacetylase-inhibiting activity, and pharmaceutical composition comprising the compound as an active ingredient” (Kyushu Institute of Technology, priority 2006, dated 2012)

Assays:
[1] = tested on: human wild type p21 promoter; experiment: p21 promoter assay (luciferase) in MFLL-9 cells; assay type: cell-based; details: 20 hours, concentration giving 1000% luminescence relative to negative control (100%)
Procedure: As an HDAC-inhibiting activity in an […] system, the following measurement was carried out using the p21 promoter inducing activity as an index. MFLL-9 cells used in the experiment are cells stably retaining a fusion gene (Dr. B. Vogelstaein) from the human wild type p21 promoter and luciferase gene. They were cultured using phenol red-free DMEM supplemented with 10% FBS in a steam-saturated incubator at 37° C. in the presence of 5% carbon dioxide. These MFLL-9 cells were sowed onto a 96-well microplate at a cell density of 2×10^4 cells/well and, after 24 hours of cultivation in 99 μl, per well, of the medium mentioned above, each test compound solution was added, followed by 20 hours of incubation. […] In a negative control, the same procedure was carried out without adding any inhibitor to the reaction system.
Using Luciferase Assay Reagent (Promega), the intensity of the luminescence due to the product of the enzymatic reaction involving luciferase expressed within cells was measured.

[2] = tested on: melanoma cell line LOX-IMVI; experiment: Human cancer cell line panel, proliferation (sulforhodamine B); assay type: cell-based; details: 2 days of cultivation, read-out: 50% inhibitory concentration, proliferation
Source text: (§1) The characteristics of the human cancer cell proliferation-inhibiting activity of the compounds of the present invention were examined by the “method of evaluating the mechanisms of action of compounds using a panel of human cancer cell lines” as proposed by Yamori et al. (cf. Gan to Kagaku Ryoho (Cancer and Chemotherapy) 29 Suppl. II (2002) and Cancer Chemother. Pharmacol. 52 Suppl. I, S74-79 (2003)).
(§2) This system includes […] (7 lung cancer, 6 stomach cancer, 5 colon cancer, 5 ovarian cancer, 6 brain tumor, […], 2 kidney cancer and 2 prostate cancer cell lines as well as one melanoma line) and the method comprises measuring the in vitro drug susceptibilities of those cancer cell lines and expressing the differences in drug susceptibility among the respective cancer cell lines as a fingerprint. […] By utilizing this property, it is possible to estimate the mechanisms of action of a compound. The above method is also characterized in that an anticancer substance showing new and unique mechanisms of action different from those of the existing anticancer agents can be selected.
(§3) Cancer cells of each cell line are sowed onto a 96-well plate, a sample solution is added on the next day and, after 2 days of cultivation, the cell proliferation is measured by colorimetry using sulforhodamine B. The deviations in effective concentration for the respective cancer cell lines from the mean effective drug concentration for the 39 cancer cell lines subjected to measurement are calculated and shown in the form a fingerprint.

[3] = tested on: lung cancer cell line NCI-H522; experiment: as above; assay type: cell-based; details: NCI-H522, 2 days of cultivation; read-out: 50% inhibitory concentration, proliferation
Source text: as §1, §2, §3

human HDAC4 = target: T1, human HDAC4 (Homo sapiens, UniProt P56524); experiment: HDAC-inhibiting activity, coumarin-labeled acetylated histone peptide assay; assay type: biochemical; details: human HDAC4 from transfected 293T cells; 37° C., 30 minutes; read-out: HDAC-inhibiting activity IC50 HDAC4
T1 construct: made in house; host or cells: 293T cells (transient transfection, anti-FLAG immunoprecipitation, FLAG peptide elution)
T1 sequence (P56524 whole entry): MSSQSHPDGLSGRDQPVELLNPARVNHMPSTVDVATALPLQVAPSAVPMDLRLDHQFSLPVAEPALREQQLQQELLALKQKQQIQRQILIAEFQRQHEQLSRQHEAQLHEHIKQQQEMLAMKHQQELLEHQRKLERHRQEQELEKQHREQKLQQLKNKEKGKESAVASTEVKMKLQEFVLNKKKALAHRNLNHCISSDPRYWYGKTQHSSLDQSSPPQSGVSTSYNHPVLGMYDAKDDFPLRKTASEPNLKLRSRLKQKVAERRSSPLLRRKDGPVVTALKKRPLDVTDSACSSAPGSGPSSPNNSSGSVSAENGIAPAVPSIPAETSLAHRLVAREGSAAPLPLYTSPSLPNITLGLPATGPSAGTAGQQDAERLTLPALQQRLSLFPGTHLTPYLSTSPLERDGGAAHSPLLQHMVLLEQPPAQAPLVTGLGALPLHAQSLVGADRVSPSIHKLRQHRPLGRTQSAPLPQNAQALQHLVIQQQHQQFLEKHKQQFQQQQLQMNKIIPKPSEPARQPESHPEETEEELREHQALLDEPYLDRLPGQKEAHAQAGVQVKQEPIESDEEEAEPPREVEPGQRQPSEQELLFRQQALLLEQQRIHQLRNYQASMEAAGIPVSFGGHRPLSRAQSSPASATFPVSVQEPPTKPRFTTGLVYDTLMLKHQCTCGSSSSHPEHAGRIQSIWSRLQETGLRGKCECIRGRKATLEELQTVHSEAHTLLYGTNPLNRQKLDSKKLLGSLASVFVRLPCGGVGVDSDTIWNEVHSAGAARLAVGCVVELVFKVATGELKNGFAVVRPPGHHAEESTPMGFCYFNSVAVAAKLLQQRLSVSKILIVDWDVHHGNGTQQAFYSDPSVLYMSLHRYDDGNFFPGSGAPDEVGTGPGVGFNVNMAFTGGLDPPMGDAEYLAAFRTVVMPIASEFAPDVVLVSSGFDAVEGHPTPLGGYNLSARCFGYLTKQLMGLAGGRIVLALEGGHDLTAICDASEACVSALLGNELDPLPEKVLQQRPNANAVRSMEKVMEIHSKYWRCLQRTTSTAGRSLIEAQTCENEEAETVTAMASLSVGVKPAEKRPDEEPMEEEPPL
T1 sequence (O15379 whole entry, further chain): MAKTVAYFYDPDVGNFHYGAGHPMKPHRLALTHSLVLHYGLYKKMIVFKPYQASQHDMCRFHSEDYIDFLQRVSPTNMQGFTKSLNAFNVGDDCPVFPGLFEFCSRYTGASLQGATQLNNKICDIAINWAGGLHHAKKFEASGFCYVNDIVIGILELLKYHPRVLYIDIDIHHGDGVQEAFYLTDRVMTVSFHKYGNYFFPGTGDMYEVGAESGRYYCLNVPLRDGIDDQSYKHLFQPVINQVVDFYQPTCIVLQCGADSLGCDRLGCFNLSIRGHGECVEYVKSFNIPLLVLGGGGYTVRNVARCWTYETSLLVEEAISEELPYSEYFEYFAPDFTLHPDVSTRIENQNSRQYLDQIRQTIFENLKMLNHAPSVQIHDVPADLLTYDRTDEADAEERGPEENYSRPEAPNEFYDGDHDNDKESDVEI
Procedure: In carrying out HDAC-inhibiting activity measurements, HDAC solutions were prepared in the following manner. […] The human HDAC1 expression vector used was pcDNA3-HD1 (Yang, W. M., Yao, Y. L., Sun, […]. & Seto, E. (1997) J. Biol. Chem. 272, 28001-28007), the human HDAC4 expression vector used was pcDNA3-HD4 ([…]., Nagase, […]. Biol. Chem. 274, 11713-11720), and the murine HDAC6 expression vector used was pcDNA3-mHDA2/HDAC6 ([…]. Biol. Chem. 274, 2440-2445). After 24 hours of incubation, cells were recovered, washed with PBS, suspended in lysis buffer (50 mM Tris-HCl (pH 7.5), 120 mM NaCl, 5 mM EDTA, 0.5% Nonidet P-40), and sonicated. The supernatant was collected by centrifugation and then deprived of nonspecific proteins using Protein A/G plus agarose beads (Santa Cruz Biotechnologies, Inc.). Thereafter, anti-FLAG M2 antibody (Sigma-Aldrich Inc.) was added, and the reaction was allowed to proceed at 4° C. for 2 hours. To this were added agarose beads, the reaction was allowed to proceed at 4° C. for 3 hours, and the agarose beads were washed three times with lysis buffer and then once with HD buffer (20 mM Tris-HCl (pH 8.0), 150 mM NaCl, 10% glycerol). […] HDAC-inhibiting activity evaluation in each in vitro system was made as follows. Each test compound was dissolved in DMSO, a stock solution with a concentration of 10 mM was thus prepared and this was used as an inhibitor stock solution. The assay was carried out by incubating the HDAC solution and a coumarin-labeled acetylated histone peptide solution in the presence of the test compound at 37° C. for 30 minutes (reaction volume 20 μl). To the reaction mixture was added 30 μl of trypsin, and the aminomethylcoumarin released by the enzymatic reaction was assayed using a fluorescent plate reader. In a negative control assay, no inhibitor was added to the reaction system and the same procedure was carried out.

human HDAC1 = target: T2, human HDAC1 (Homo sapiens, UniProt Q13547); experiment: as above; assay type: biochemical; details: human HDAC1 from transfected 293T cells; 37° C., 30 minutes
T2 construct: made in house; host or cells: 293T cells (transient transfection, anti-FLAG immunoprecipitation, FLAG peptide elution)
T2 sequence (Q13547 whole entry): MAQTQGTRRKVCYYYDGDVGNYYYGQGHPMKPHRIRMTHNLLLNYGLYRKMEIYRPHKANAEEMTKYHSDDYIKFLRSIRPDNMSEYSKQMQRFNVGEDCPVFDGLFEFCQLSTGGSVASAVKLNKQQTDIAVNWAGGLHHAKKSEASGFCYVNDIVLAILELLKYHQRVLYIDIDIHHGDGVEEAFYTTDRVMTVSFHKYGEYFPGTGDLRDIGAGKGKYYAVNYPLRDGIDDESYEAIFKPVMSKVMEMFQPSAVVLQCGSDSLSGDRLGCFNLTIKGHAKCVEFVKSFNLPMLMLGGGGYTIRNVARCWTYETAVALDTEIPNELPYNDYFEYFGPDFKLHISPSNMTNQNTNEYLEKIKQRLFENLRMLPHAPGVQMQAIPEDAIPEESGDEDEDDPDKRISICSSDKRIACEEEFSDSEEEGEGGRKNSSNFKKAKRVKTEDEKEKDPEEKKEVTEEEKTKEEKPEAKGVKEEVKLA
Procedure: (§4) In carrying out HDAC-inhibiting activity measurements, HDAC solutions were prepared in the following manner. In each 100-mm dish, there were sowed 1×10^7 293T cells and, after 24 hours, they were transfected with a vector (5 μg) expressing human HDAC1 or HDAC4 or murine HDAC6 using the LipofectAmine 2000 reagent (Invitrogen). The human HDAC1 expression vector used was pcDNA3-HD1 (Yang, W. M., Yao, Y. L., Sun, J. M., Davie, J. R. & Seto, E. (1997) J. Biol. Chem. 272, 28001-28007), the human HDAC4 expression vector used was pcDNA3-HD4 (Fischle, W., Emiliani, S., Hendzel, M. J., Nagase, T., Nomura, N., Voelter, W. & Verdin, E. (1999) J. Biol. Chem. 274, 11713-11720), and the murine HDAC6 expression vector used was pcDNA3-mHDA2/HDAC6 (Verdel, A. & Khochbin, S. (1999) J. Biol. Chem. 274, 2440-2445).
(§5) After 24 hours of incubation, cells were recovered, washed with PBS, suspended in lysis buffer (50 mM Tris-HCl (pH 7.5), 120 mM NaCl, 5 mM EDTA, 0.5% Nonidet P-40), and sonicated. The supernatant was collected by centrifugation and then deprived of nonspecific proteins using Protein A/G plus agarose beads (Santa Cruz Biotechnologies, Inc.). Thereafter, anti-FLAG M2 antibody (Sigma-Aldrich Inc.) was added, and the reaction was allowed to proceed at 4° C. for 2 hours.
(§6) To this were added agarose beads, the reaction was allowed to proceed at 4° C. for 3 hours, and the agarose beads were washed three times with lysis buffer and then once with HD buffer (20 mM Tris-HCl (pH 8.0), 150 mM NaCl, 10% glycerol). The protein bound to the agarose beads was recovered by 1 hour of incubation with FLAG peptide (40 μg) (Sigma-Aldrich Inc.) in HD buffer (200 μl) at 4° C., and the liquid recovered was used, as a reactant solution, in the HDAC-inhibiting activity measurement described below.
(§7) HDAC-inhibiting activity evaluation in each in vitro system was made as follows. Each test compound was dissolved in DMSO, a stock solution with a concentration of 10 mM was thus prepared and this was used as an inhibitor stock solution. The assay was carried out by incubating the HDAC solution and a coumarin-labeled acetylated histone peptide solution in the presence of the test compound at 37° C. for 30 minutes (reaction volume 20 μl). To the reaction mixture was added 30 μl of trypsin, and the aminomethylcoumarin released by the enzymatic reaction was assayed using a fluorescent plate reader. In a negative control assay, no inhibitor was added to the reaction system and the same procedure was carried out.

murine HDAC6 = target: T3, murine HDAC6 (Mus musculus, UniProt Q9Z2V5); experiment: as above; assay type: biochemical; details: murine HDAC6 from transfected 293T cells; 37° C., 30 minutes
T3 construct: made in house; host or cells: 293T cells (transient transfection, anti-FLAG immunoprecipitation, FLAG peptide elution)
T3 sequence (Q9Z2V5 1-1149): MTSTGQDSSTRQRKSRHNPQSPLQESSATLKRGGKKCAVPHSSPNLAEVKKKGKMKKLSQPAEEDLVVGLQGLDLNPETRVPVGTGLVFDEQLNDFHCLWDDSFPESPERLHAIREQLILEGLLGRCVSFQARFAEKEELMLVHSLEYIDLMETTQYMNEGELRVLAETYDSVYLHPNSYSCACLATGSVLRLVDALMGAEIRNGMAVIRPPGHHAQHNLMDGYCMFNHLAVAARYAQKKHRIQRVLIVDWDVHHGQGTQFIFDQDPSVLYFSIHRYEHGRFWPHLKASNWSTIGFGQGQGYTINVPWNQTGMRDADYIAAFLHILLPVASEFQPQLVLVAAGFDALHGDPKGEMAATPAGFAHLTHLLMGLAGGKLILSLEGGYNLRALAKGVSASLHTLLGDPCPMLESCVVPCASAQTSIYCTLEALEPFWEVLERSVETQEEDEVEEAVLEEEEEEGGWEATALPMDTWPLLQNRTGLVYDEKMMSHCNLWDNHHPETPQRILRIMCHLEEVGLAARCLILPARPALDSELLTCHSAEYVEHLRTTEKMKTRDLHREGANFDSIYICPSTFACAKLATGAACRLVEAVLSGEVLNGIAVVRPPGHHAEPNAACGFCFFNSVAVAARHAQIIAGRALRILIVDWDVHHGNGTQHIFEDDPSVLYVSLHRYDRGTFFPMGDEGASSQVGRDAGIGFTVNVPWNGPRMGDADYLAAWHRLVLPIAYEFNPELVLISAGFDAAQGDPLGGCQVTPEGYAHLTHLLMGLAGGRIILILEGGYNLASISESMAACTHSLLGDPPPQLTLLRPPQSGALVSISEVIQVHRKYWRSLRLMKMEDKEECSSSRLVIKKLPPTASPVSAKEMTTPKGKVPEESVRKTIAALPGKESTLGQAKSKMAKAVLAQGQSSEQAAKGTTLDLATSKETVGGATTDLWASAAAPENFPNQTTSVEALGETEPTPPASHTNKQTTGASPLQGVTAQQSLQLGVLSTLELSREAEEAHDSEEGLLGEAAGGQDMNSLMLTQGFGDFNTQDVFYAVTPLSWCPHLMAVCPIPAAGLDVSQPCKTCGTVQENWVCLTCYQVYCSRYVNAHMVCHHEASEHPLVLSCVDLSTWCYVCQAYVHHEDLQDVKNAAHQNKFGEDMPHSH
Procedure: as §4, §5, §6, §7

| IC50 [2] [µM] | IC50 [3] [µM] | IC50 (human HDAC4) [µM] | IC50 (human HDAC1) [µM] | IC50 (murine HDAC6) [µM] | SMILES | p21 promoter activity EC1000 [1] [µM] |
| --- | --- | --- | --- | --- | --- | --- |
| ≤ 0.1 | ≤ 0.1 | 0.028 |  |  | COCC(=O)CCCCC[C@@H]1NC(=O)[C@H]2CCCN2C(=O)[C@H](Cc2ccccc2)NC(=O)C(C)(C)NC1=O [Ky-9, cyclo(-L-Ae9(Mmk)-Aib-L-Phe-D-Pro-)] | 0.043 |
|  |  | 0.33 | 0.4 | 3.7 | CC1(C)NC(=O)[C@H](CCCCCSCc2cccnc2)NC(=O)[C@H]2CCCN2C(=O)[C@H](Cc2ccccc2)NC1=O [Ky-68, cyclo(-L-Am7(3-pyridylmethyl)-Aib-L-Phe-D-Pro-)] | 0.20 |
|  |  | > 100 | > 100 | > 100 | CC(=O)COCCCCC[C@@H]1NC(=O)[C@H]2CCCN2C(=O)[C@H](Cc2ccccc2)NC(=O)C(C)(C)NC1=O [Ky-74, cyclo(-L-Ah7(acetonyl)-Aib-L-Phe-D-Pro-)] | >250 |

The remaining lines, values behind:

| SMILES | IC50 [2] [µM] | IC50 [3] [µM] | IC50 (human HDAC4) [µM] | IC50 (human HDAC1) [µM] | IC50 (murine HDAC6) [µM] | p21 promoter activity EC1000 [1] [µM] |
| --- | --- | --- | --- | --- | --- | --- |
| CC1(C)NC(=O)[C@H](CCCCCSCc2ccccc2)NC(=O)[C@H]2CCCN2C(=O)[C@H](Cc2ccccc2)NC1=O [Ky-69, cyclo(-L-Am7(benzyl)-Aib-L-Phe-D-Pro-)] |  |  | 0.0065 | 0.011 | 0.12 | 0.041 |
| CC1(C)NC(=O)[C@H](CCCCC[S+]([O-])CC(=O)C(F)(F)F)NC(=O)[C@H]2CCCN2C(=O)[C@H](Cc2ccccc2)NC1=O (stereo partly drawn) [Ky-71, cyclo(-L-Am7(1,1,1-trifluoroacetonyl, sulfoxide)-Aib-L-Phe-D-Pro-)] |  |  | > 100 | > 100 | > 100 | 3.4 |
| CC1(C)NC(=O)[C@H](CCCCCCSCC(=O)C(F)(F)F)NC(=O)[C@H]2CCCN2C(=O)[C@H](Cc2ccccc2)NC1=O [Ky-73, cyclo(-L-Am8(1,1,1-trifluoroacetonyl)-Aib-L-Phe-D-Pro-)] |  |  | 0.46 | 1.1 | 26.4 | 3.7 |
| COCC(=O)CSCCCCC[C@@H]1NC(=O)[C@H]2CCCN2C(=O)[C@H](Cc2ccccc2)NC(=O)C(C)(C)NC1=O [Ky-85, cyclo(-L-Am7(methoxyacetonyl)-Aib-L-Phe-D-Pro-)] |  |  | 0.077 | 0.13 | 1.2 | 0.48 |
